Data: patent publication US11181533B2, “Diagnosing and treating Alzheimer's disease” (DIGNITY HEALTH, priority 2013, dated 2021)
Like-named read-outs stand apart in the source and are kept apart here. No end group written: not given here.

Assays:
Aβ induced cell death = experiment: Protection against Aβ induced cell death; format: cell-based; settings: by enhancing mitochondrial function
[1] = tested on: SAMP8 mice and APP transgenic mice; settings: intranasal administration, cited from earlier work

For “Pituitary Adenylate Cyclase Activating Polypeptide (HSDGIFTDSYSRYRKQMAVKKYLAAVLGKRYKQRVKNK; ends and bridges not checked; UniProt P18509 132-169, looked up) [PACAP, small peptide with either 38 amino acids in full length form (PACAP-38), or 27 amino acids in short form (PACAP-27); neurotrophin]”, the “protection against Aβ induced cell death” value (Aβ induced cell death) is given as “protects against Aβ induced cell death”, the Novel object recognition ([1]; APP transgenic mice) is given as “enhances Novel object recognition” and the Novel object recognition ([1]; SAMP8 mice) is given as “enhances Novel object recognition”.
